# Data as given in PMC10337138 (Acta Neuropathologica Communications, 2023).
# Experiments:
# Details in all cases: 1 mM ATP; inhibitor
# LYNA = target: T1, LYNA (Homo sapiens, UniProt P07948)
# T1 construct: gene LYN
# Method: (§1) Kinase selectivity panel Kinome profiling was conducted by AssayQuant Technologies (Marlboro, MA) using Sox chromophore technology and Sox-based peptide substrates developed for human kinases in a 384-well format. Compounds were tested at 1 µM in the presence of 1 mM ATP.
# EPHA8 = EPHA8 (Homo sapiens, UniProt P29322)
# Method: as §1
# RPS6KA6/RSK4 = RPS6KA6/RSK4 (Homo sapiens, UniProt Q9UK32)
# Sequence of RPS6KA6/RSK4 (Q9UK32 whole entry): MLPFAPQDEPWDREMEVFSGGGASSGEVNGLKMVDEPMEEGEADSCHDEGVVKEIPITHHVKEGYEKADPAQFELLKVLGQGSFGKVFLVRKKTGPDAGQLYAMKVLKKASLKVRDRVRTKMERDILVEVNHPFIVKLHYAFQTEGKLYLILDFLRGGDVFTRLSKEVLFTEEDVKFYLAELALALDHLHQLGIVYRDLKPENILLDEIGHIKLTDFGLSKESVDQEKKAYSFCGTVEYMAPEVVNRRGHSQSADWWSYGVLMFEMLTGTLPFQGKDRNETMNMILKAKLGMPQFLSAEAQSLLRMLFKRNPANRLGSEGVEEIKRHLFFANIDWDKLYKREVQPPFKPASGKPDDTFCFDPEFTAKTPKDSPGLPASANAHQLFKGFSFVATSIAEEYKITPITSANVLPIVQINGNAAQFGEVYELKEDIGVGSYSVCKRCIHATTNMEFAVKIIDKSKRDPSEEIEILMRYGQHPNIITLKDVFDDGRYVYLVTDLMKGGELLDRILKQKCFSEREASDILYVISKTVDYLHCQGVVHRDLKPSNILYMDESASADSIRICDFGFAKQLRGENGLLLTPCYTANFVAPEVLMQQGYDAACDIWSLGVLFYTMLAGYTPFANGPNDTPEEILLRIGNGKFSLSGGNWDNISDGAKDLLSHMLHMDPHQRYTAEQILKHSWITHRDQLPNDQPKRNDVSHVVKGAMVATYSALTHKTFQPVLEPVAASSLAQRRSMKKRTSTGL
# Method: as §1
# EPHA4 = EPHA4 (Homo sapiens, UniProt P54764)
# Method: as §1
# DAPK1 = DAPK1 (Homo sapiens, UniProt P53355)
# Method: as §1
# INSR = INSR (Homo sapiens, UniProt P06213)
# Method: as §1
# MAPKAPK2/MK2 = MAPKAPK2/MK2 (Homo sapiens, UniProt P49137)
# Sequence of MAPKAPK2/MK2 (P49137 whole entry): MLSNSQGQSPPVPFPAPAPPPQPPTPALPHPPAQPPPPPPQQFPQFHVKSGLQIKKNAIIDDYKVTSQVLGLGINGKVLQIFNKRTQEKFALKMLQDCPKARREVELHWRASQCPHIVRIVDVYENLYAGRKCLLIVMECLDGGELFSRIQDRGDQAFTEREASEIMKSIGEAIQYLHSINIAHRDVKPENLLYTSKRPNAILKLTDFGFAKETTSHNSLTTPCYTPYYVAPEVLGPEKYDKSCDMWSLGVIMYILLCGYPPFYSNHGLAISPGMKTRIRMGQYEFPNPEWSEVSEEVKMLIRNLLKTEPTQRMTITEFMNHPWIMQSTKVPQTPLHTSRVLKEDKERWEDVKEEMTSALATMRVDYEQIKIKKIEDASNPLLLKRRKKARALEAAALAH
# Method: as §1
# MYLK3 = MYLK3 (Homo sapiens, UniProt Q32MK0)
# Method: as §1
# TTK = TTK (Homo sapiens, UniProt P33981)
# Method: as §1
# IRAK4 = IRAK4 (Homo sapiens, UniProt Q9NWZ3)
# Method: as §1
# EPHA7 = EPHA7 (Homo sapiens, UniProt Q15375)
# Method: as §1
# PKN2 = PKN2 (Homo sapiens, UniProt Q16513)
# Method: as §1
# CSK = CSK (Homo sapiens, UniProt P41240)
# Method: as §1
# CAMK2B = CAMK2B (Homo sapiens, UniProt Q13554)
# Sequence of CAMK2B (Q13554 whole entry): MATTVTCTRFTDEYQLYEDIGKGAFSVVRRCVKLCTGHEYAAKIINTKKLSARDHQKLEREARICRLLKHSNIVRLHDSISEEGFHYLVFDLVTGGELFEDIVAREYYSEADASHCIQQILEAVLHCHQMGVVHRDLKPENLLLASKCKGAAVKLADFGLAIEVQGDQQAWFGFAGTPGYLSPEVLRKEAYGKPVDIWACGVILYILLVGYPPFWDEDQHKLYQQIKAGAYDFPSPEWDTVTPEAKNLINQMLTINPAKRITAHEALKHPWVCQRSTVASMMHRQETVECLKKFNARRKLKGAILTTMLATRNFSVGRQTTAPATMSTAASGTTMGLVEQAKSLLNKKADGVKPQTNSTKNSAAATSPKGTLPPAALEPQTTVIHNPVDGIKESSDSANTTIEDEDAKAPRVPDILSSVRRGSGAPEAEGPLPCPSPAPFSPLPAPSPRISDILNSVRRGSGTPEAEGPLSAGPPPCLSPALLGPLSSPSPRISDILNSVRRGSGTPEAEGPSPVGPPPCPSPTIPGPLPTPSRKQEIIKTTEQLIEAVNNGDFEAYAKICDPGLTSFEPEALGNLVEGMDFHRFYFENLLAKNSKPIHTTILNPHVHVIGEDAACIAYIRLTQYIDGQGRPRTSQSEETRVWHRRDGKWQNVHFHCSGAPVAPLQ
# Method: as §1
# EPHA5 = EPHA5 (Homo sapiens, UniProt P54756)
# Method: as §1
# EPHB4 = EPHB4 (Homo sapiens, UniProt P54760)
# Method: as §1
# STK24/MST3 = STK24/MST3 (Homo sapiens, UniProt Q9Y6E0)
# Sequence of STK24/MST3 (Q9Y6E0 whole entry): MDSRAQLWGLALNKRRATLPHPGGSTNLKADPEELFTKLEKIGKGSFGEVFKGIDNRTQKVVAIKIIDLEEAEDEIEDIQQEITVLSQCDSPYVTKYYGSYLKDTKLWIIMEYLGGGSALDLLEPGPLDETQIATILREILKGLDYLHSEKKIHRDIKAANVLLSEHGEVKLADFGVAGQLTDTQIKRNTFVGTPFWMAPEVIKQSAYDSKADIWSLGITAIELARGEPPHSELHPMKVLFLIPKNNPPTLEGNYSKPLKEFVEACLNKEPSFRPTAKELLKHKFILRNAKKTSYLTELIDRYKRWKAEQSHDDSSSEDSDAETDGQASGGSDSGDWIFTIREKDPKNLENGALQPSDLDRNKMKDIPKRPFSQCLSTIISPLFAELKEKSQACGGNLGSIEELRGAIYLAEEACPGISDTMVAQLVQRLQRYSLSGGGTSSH
# Method: as §1
# CDK9/T1 = CDK9/T1 (Homo sapiens, UniProt P50750)
# Method: as §1
# CDK2/E1 = CDK2/E1 (Homo sapiens, UniProt P24941)
# Method: as §1
# KIT = KIT (Homo sapiens, UniProt P10721)
# Sequence of KIT (P10721 whole entry): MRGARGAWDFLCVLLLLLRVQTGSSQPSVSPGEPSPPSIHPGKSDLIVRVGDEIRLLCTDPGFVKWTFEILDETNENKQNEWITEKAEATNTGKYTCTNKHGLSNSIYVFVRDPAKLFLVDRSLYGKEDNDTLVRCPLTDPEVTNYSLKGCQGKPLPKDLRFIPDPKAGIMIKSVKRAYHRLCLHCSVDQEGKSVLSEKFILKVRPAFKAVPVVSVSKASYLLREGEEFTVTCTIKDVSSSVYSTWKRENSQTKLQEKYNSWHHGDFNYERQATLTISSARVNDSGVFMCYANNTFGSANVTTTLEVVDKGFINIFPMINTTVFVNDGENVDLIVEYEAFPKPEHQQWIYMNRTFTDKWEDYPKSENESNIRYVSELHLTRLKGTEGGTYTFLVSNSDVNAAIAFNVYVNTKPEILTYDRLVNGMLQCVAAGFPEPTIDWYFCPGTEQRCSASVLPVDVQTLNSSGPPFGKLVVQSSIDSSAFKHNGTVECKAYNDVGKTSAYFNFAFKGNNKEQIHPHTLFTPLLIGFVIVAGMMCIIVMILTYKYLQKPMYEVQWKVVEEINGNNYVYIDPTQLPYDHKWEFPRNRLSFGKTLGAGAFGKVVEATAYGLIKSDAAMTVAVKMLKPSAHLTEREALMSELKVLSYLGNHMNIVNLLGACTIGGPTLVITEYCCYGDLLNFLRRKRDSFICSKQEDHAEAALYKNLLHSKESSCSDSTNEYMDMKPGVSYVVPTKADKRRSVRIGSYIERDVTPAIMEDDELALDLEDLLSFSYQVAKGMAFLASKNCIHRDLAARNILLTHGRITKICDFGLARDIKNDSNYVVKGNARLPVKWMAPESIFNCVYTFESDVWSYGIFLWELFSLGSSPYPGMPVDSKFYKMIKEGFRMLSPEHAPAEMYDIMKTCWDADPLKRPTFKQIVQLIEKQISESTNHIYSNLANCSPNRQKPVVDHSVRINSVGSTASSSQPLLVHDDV
# Method: as §1
# KSR2 = KSR2 (Homo sapiens, UniProt Q6VAB6)
# Method: as §1
# AXL = AXL (Homo sapiens, UniProt P30530)
# Method: as §1
# HIPK2 = HIPK2 (Homo sapiens, UniProt Q9H2X6)
# Method: as §1
# NDR1 = target: T2, NDR1 (Homo sapiens, UniProt Q15208)
# T2 construct: gene STK38
# Method: as §1
# MAPK15/ERK7 = MAPK15/ERK7 (Homo sapiens, UniProt Q8TD08)
# Method: as §1
# PHKG2 = PHKG2 (Homo sapiens, UniProt P15735)
# Sequence of PHKG2 (P15735 whole entry): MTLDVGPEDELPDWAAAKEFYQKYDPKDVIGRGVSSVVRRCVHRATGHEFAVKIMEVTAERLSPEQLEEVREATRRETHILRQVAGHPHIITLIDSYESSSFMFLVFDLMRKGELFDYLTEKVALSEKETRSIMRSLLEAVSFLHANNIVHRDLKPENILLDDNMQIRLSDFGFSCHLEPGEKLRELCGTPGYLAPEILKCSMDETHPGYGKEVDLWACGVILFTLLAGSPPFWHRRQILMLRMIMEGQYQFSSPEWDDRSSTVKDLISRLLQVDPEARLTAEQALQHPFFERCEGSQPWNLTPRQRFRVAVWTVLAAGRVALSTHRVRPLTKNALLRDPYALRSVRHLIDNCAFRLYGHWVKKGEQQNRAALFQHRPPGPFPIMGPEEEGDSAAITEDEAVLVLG
# Method: as §1
# PAK4 = PAK4 (Homo sapiens, UniProt O96013)
# Sequence of PAK4 (O96013 whole entry): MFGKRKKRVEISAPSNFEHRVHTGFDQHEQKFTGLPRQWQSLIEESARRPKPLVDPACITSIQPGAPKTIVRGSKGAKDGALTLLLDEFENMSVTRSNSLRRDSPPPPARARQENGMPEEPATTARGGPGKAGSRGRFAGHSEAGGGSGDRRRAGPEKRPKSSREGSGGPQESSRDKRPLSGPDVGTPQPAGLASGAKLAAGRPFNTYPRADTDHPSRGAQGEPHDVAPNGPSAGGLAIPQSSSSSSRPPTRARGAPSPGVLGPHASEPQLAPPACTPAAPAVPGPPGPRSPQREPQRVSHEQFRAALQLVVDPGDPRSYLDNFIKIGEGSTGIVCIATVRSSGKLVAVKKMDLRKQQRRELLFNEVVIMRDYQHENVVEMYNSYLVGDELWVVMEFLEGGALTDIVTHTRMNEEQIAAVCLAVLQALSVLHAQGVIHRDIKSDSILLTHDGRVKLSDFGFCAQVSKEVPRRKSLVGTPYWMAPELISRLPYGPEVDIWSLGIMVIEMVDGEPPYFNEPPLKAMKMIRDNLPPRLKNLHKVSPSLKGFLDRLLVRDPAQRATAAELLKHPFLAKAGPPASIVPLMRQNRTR
# Method: as §1
# PKN3 = PKN3 (Homo sapiens, UniProt Q6P5Z2)
# Method: as §1
# RET = RET (Homo sapiens, UniProt P07949)
# Method: as §1
# MAPK3/ERK1 = MAPK3/ERK1 (Homo sapiens, UniProt P27361)
# Sequence of MAPK3/ERK1 (P27361 whole entry): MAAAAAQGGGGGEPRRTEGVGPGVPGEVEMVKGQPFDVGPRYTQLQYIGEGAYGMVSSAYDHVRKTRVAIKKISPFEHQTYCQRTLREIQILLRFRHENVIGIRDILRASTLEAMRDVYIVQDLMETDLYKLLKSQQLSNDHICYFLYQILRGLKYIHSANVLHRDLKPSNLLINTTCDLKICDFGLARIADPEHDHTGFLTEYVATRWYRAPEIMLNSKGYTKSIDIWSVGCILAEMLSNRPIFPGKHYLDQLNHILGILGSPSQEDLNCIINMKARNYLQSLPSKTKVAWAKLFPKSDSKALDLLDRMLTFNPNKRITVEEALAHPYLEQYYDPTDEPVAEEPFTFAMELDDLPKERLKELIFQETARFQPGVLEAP
# Method: as §1
# NEK6 = NEK6 (Homo sapiens, UniProt Q9HC98)
# Method: as §1
# NEK2 = NEK2 (Homo sapiens, UniProt P51955)
# Method: as §1
# TSSK2 = TSSK2 (Homo sapiens, UniProt Q96PF2)
# Sequence of TSSK2 (Q96PF2 whole entry): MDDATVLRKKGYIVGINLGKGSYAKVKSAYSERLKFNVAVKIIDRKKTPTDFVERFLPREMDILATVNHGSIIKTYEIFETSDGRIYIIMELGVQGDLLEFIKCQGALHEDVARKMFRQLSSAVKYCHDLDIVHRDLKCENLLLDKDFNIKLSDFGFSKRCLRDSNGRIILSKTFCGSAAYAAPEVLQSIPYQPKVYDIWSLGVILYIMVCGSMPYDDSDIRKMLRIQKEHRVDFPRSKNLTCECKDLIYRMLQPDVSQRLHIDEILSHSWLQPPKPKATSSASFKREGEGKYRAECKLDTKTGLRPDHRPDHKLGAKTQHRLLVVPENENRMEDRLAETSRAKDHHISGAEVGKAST
# Method: as §1
# CAMK1A = target: T3, CAMK1A (Homo sapiens, UniProt Q14012)
# T3 construct: gene CAMK1
# Method: as §1
# MAP3K9 = MAP3K9 (Homo sapiens, UniProt P80192)
# Method: as §1
# EPHA6 = EPHA6 (Homo sapiens, UniProt Q9UF33)
# Method: as §1
# TSSK3 = TSSK3 (Homo sapiens, UniProt Q96PN8)
# Method: as §1
# MAP4K5/KSH1 = MAP4K5/KSH1 (Homo sapiens, UniProt Q9Y4K4)
# Method: as §1
# JAK1(JH1) = JAK1(JH1) (Homo sapiens, UniProt P23458)
# Method: as §1
compound,measurement,setting,value
C=CC(=O)N1CCC[C@@H](n2nc(-c3ccc(Oc4ccccc4)cc3)c3c(N)ncnc32)C1 [Ibrutinib],"1 µM GBD00276 (ibrutinib), % inhibition",LYNA,35.64%
same,"1 µM GBD00276 (ibrutinib), % inhibition",EPHA8,15.21%
same,"1 µM GBD00276 (ibrutinib), % inhibition",RPS6KA6/RSK4,23.9%
same,"1 µM GBD00276 (ibrutinib), % inhibition",EPHA4,-4.922%
same,"1 µM GBD00276 (ibrutinib), % inhibition",DAPK1,0.3006%
same,"1 µM GBD00276 (ibrutinib), % inhibition",INSR,-2.978%
same,"1 µM GBD00276 (ibrutinib), % inhibition",MAPKAPK2/MK2,8.023%
same,"1 µM GBD00276 (ibrutinib), % inhibition",MYLK3,0.8658%
same,"1 µM GBD00276 (ibrutinib), % inhibition",TTK,9.751%
same,"1 µM GBD00276 (ibrutinib), % inhibition",IRAK4,1.168%
same,"1 µM GBD00276 (ibrutinib), % inhibition",EPHA7,-0.6285%
same,"1 µM GBD00276 (ibrutinib), % inhibition",PKN2,2.374%
same,"1 µM GBD00276 (ibrutinib), % inhibition",CSK,61.63%
same,"1 µM GBD00276 (ibrutinib), % inhibition",CAMK2B,4.39%
same,"1 µM GBD00276 (ibrutinib), % inhibition",EPHA5,-3.884%
same,"1 µM GBD00276 (ibrutinib), % inhibition",EPHB4,10.75%
same,"1 µM GBD00276 (ibrutinib), % inhibition",STK24/MST3,-20.41%
same,"1 µM GBD00276 (ibrutinib), % inhibition",CDK9/T1,-10.19%
same,"1 µM GBD00276 (ibrutinib), % inhibition",CDK2/E1,1.085%
same,"1 µM GBD00276 (ibrutinib), % inhibition",KIT,2.778%
same,"1 µM GBD00276 (ibrutinib), % inhibition",KSR2,3.265%
same,"1 µM GBD00276 (ibrutinib), % inhibition",AXL,-6.462%
same,"1 µM GBD00276 (ibrutinib), % inhibition",HIPK2,1.01%
same,"1 µM GBD00276 (ibrutinib), % inhibition",NDR1,6.051%
same,"1 µM GBD00276 (ibrutinib), % inhibition",MAPK15/ERK7,-6.367%
same,"1 µM GBD00276 (ibrutinib), % inhibition",PHKG2,1.522%
same,"1 µM GBD00276 (ibrutinib), % inhibition",PAK4,3.525%
same,"1 µM GBD00276 (ibrutinib), % inhibition",PKN3,29.61%
same,"1 µM GBD00276 (ibrutinib), % inhibition",RET,15.14%
same,"1 µM GBD00276 (ibrutinib), % inhibition",MAPK3/ERK1,2.161%
same,"1 µM GBD00276 (ibrutinib), % inhibition",NEK6,-7.047%
same,"1 µM GBD00276 (ibrutinib), % inhibition",NEK2,2.418%
same,"1 µM GBD00276 (ibrutinib), % inhibition",TSSK2,9.261%
same,"1 µM GBD00276 (ibrutinib), % inhibition",CAMK1A,-26.28%
same,"1 µM GBD00276 (ibrutinib), % inhibition",MAP3K9,-1.576%
same,"1 µM GBD00276 (ibrutinib), % inhibition",EPHA6,17.71%
same,"1 µM GBD00276 (ibrutinib), % inhibition",TSSK3,-3.43%
same,"1 µM GBD00276 (ibrutinib), % inhibition",MAP4K5/KSH1,14.55%
same,"1 µM GBD00276 (ibrutinib), % inhibition",JAK1(JH1),19.49%
